Broadly, the Ki is the dissociation constant of the complex between target and ligand, obtained from inhibition or displacement.

The experiment has as its target T1, human cannabinoid receptor 2 (CB2) (Homo sapiens, UniProt P34972).
T1 construct: expressed in transfected cells
In words: CB2 in vitro assays on CHO cell membranes ([3H]-CP55940 ligand binding / GTPγS binding), Ki by Cheng-Prusoff. Conditions: membranes of CHO cells stably expressing human CB2; EC50 converted by Cheng-Prusoff. As for the experimental part: Homogenized membranes are prepared from CHO cell clones stably expressing a human cannabinoid receptor 1 (CB1) or human cannabinoid receptor 2 (CB2). Cells are grown and scrapped from 15 cm tissue culture plates, and then subsequently centrifuged down. Cells are washed once with cold PBS, and resuspended in <20 ml of Buffer A (20 mM HEPES, pH 7.4, 10 mM EDTA, EDTA-free complete protease inhibitor cocktail [1 tablet/25 ml]). The cell suspension is homogenized on ice, using a Polytron homogenizer at 25000 rpm at three intervals of 15 seconds each. The homogenate is first centrifuged at 2000 rpm on a tabletop low speed centrifuge for 10 minutes. The supernatant, after passing through a cell strainer, is then centrifuged at 50,000×g for 25 minutes at 4° C. The pellet is resuspended into buffer B (15% glycerol, 20 mM HEPES, pH 7.4, 0.1 mM EDTA, EDTA-free complete protease inhibitor cocktail [1 tablet/10 ml]). Protein concentration of the prep is determined using the BCA Protein Assay kit using BSA as standard. The membranes are aliquoted and kept frozen at −80° C.
[^3H]-CP55940 ligand binding assay: Solutions of test compounds ranging from 100 μM to 0.01 nM are prepared in DMSO. The desired amount of membrane prep is diluted with ice-cold assay buffer (50 mM Tris-HCl, 2.5 mM EDTA, 5 mM MgCl2, 0.05% BSA, pH 7.4) and vortexed well. […]
In general terms: GTPγS is a poorly hydrolysed GTP analogue; its binding reports G protein activation.

T1 sequence (P34972 whole entry): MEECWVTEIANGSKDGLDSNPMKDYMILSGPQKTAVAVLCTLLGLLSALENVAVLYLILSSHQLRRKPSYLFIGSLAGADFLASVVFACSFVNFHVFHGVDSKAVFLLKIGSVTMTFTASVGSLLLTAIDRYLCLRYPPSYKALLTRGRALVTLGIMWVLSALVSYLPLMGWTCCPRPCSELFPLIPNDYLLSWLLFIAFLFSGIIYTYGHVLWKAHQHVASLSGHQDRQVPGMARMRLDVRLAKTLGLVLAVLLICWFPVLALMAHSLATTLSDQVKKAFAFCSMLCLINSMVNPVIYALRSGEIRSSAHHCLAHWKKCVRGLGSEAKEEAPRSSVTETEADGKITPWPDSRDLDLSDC

With `O=c1c2cnn(-c3ccccc3)c2nc(-c2ccccc2F)n1-c1ccc(Br)cc1` [Compound 19, 5-(4-Bromo-phenyl)-6-(2-fluoro-phenyl)-1-phenyl-1,5-dihydro-pyrazolo[3,4-d]pyrimidin-4-one], the Ki was > 5 µM.

These data come from US8158634B2, “Compounds and compositions as inhibitors of cannabinoid receptor 1 activity” (IRM LLC, priority 2004, dated 2012).
